Data on 3 compounds can be found in patent EP4480493A1, “A RECOMBINANT HUMAN ALPHA-1 ANTITRYPSIN GLYCOPROTEIN FOR TREATING NON-VIRAL INFLAMMATORY DISEASES OF THE LUNG” (AATEC Medical GmbH, priority 2023, dated 2024).

Structures can show the parent of a compound that is named as a salt.

As usually defined, the IC90 is the point of the concentration-response curve where the effect stands at 90%.

Assay [1] deals with T1, human neutrophil elastase (Homo sapiens, UniProt P08246).
T1 construct: purchased Merck Millipore 324681
T1 sequence (P08246 30-247 limits assumed): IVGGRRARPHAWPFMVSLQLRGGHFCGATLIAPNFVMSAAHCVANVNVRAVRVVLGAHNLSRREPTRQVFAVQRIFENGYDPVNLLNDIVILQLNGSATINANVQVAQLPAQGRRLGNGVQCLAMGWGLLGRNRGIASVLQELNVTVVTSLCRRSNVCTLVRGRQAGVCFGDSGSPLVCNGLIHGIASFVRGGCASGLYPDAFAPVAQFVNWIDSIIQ
The assay is described as follows: Neutrophil Elastase activity assay (fluorogenic AMC substrate). The class given is biochemical. More on the design: key to Neutrophil Elastase IC50 / Neutrophil Elastase IC90: - = inactive.

In assay [2] the target is recombinant human TMPRSS2 (Homo sapiens, UniProt O15393). Nature of the assay: TMPRSS2 activity assay (fluorogenic AMC substrate). The settings on record: read-out: TMPRSS2 IC90.
Sequence of recombinant human TMPRSS2 (O15393 106-492 limits assumed): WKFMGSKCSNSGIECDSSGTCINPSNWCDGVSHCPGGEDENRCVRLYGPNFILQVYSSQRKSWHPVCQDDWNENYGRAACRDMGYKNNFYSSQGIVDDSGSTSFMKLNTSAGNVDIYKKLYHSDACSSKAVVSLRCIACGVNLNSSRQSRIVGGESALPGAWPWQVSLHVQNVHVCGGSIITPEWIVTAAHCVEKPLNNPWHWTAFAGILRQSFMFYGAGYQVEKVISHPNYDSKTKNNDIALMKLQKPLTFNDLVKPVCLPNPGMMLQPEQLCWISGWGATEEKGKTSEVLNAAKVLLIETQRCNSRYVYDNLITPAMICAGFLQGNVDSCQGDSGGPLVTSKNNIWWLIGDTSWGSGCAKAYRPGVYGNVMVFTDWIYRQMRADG
Protocol: Fluorescence intensity was measured at an excitation wavelength of 380 nm and emission wavelength of 460 nm. […] Half maximal inhibition concentrations (IC50) were calculated using a non-linear regression model.
In a next step, 50 µl of 20 µM BOC-Gln-Ala-Arg-AMC protease substrate (Bachem #4017019) was added and incubated for 2 h at 37°C. Fluorescence intensity was measured after 2 h at an excitation wavelength of 380 nm and emission wavelength of 460 nm in a SynergyTM H1 microplate reader (BioTek) with Gen5 3.04 software.
Therefore, the ability of rhAAT to inhibit recombinant TMPRSS2 was assessed analogous to the neutrophil elastase measurement.
IC50 and IC90 were calculated using a non-linear regression model in GraphPad Prism 9.
Assay [3] deals with recombinant human TMPRSS2 enzyme (CusaBio #YP023924HU) (human) (UniProt O15393). The assay is described as follows: cell-based or functional assay.
Sequence of recombinant human TMPRSS2 enzyme (CusaBio #YP023924HU) (human) (O15393 106-492 limits assumed): as above

Regarding `CN(C)C(=O)COC(=O)Cc1ccc(OC(=O)c2ccc(NC(=N)N)cc2)cc1` [Camostat mesylate], in assay [1] (non-linear regression), the “Neutrophil Elastase IC90” value is given as “-”. In assay [1] (non-linear regression, three independent experiments), the “Neutrophil Elastase IC50” value is recorded as “-”. The “inhibition of neutrophil elastase activity” value in assay [1] (result in words, Figure 27) was “did not inhibit”. Also, in assay [2], the IC90 turned out to be 9.2 nM.
Consider “Prolastin (Grifols), human plasma-derived A1AT formulation (from UniProt P01009 25-418)”, for which, in assay [3], the TMPRSS2 IC50 (TMPRSS2 activity assay, fluorogenic BOC-Gln-Ala-Arg-AMC substrate) amounted to 79 nM.
Take “recombinant human alpha-1-antitrypsin (rhAAT) glycoprotein secreted from Pichia pastoris mutS strain 1B6 (from UniProt P01009 25-418)”: the TMPRSS2 IC50 (TMPRSS2 activity assay, fluorogenic BOC-Gln-Ala-Arg-AMC substrate) in assay [3] is 74.1 nM.
